Assay results published in PubChem BioAssay AID1963969 (Molecular Pharmacology Branch, DTP, NCI, 2024).

Test system: 817829-284-R-J1-PDC multi-cell spheroid viability
Assay: Anticancer human tumor 817829-284-R-J1-PDC patient-derived colon adenocarcinoma cell line growth inhibition [PI3K]
Conditions: for IC50: curve of first compound; for viability, T/C: stronger effect = lower value
Summary of the method: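 Complex 3D spheroids (cancer cells + endothelial HUVEC + mesenchymal stem cells); drug pairs of targeted agent x inavolisib/alpelisib/duvelisib/copanlisib; half-log series from ~Cmax, max 10 microM if Cmax unknown; endpoint viability.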

[1] = second compound 0.0316 µM, first compound 0.0316 µM
[2] = second compound 0.0316 µM, first compound 0.1 µM
[3] = second compound 0.1 µM, first compound 0.0316 µM
[4] = second compound 0.1 µM, first compound 0.1 µM
[5] = second compound 0.316 µM, first compound 0.0316 µM
[6] = second compound 0.316 µM, first compound 0.1 µM
[7] = second compound 1 µM, first compound 0.0316 µM
[8] = second compound 1 µM, first compound 0.1 µM
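Further: spheroids exposed to agents for seven days before readout.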
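Wherever viability, T/C is given: percent of vehicle DMSO control viability which is 100%.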

For `CC1(C)CCC(Nc2ncc(C(F)(F)F)c(-c3c[nH]c4c(P(C)(C)=O)c(C#N)ccc34)n2)CN1` (centres undefined) + CC(Nc1ccc2c(c1)OCCn1cc(N3C(=O)OCC3C(F)F)nc1-2)C(N)=O, the IC50 (second compound 0.00316 µM) was under 0.0316 µM, the IC50 (second compound 0.01 µM) was under 0.0316 µM and the IC50 (second compound 0.0316 µM) was under 0.0316 µM. The IC50 (second compound 0.1 µM) was under 0.0316 µM, the IC50 (second compound 0.316 µM) was under 0.0316 µM and the IC50 (second compound 1 µM) was under 0.0316 µM. For the same compound, the viability, T/C (second compound 0.00316 µM, first compound 0.0316 µM) was 27.5%, the viability, T/C (second compound 0.00316 µM, first compound 0.1 µM) was 24.9% and the viability, T/C (second compound 0.00316 µM, first compound 0.316 µM) was 36.7%. For the same compound, the viability, T/C (second compound 0.00316 µM, first compound 1 µM) was 28.7%, the viability, T/C (second compound 0.00316 µM, first compound 3.16 µM) was 30% and the viability, T/C (second compound 0.00316 µM, first compound 10 µM) was 0.96%. It also gave a viability, T/C (second compound 0.01 µM, first compound 0.0316 µM) of 26.9%, a viability, T/C (second compound 0.01 µM, first compound 0.1 µM) of 25.7% and a viability, T/C (second compound 0.01 µM, first compound 0.316 µM) of 25.2%. For the same compound, the viability, T/C (second compound 0.01 µM, first compound 1 µM) was 33.6%, the viability, T/C (second compound 0.01 µM, first compound 3.16 µM) was 26.4% and the viability, T/C (second compound 0.01 µM, first compound 10 µM) was 1.03%. It also gave a viability, T/C [1] of 24.1%, a viability, T/C [2] of 28.1% and a viability, T/C (second compound 0.0316 µM, first compound 0.316 µM) of 25.9%. The viability, T/C (second compound 0.0316 µM, first compound 1 µM) was 32%, the viability, T/C (second compound 0.0316 µM, first compound 3.16 µM) was 24.6% and the viability, T/C (second compound 0.0316 µM, first compound 10 µM) was 0.85%. It also gave a viability, T/C [3] of 25.2%, a viability, T/C [4] of 28.4% and a viability, T/C (second compound 0.1 µM, first compound 0.316 µM) of 32.1%. For the same compound, the viability, T/C (second compound 0.1 µM, first compound 1 µM) was 27.7%, the viability, T/C (second compound 0.1 µM, first compound 3.16 µM) was 29.2% and the viability, T/C (second compound 0.1 µM, first compound 10 µM) was 1.66%. For the same compound, the viability, T/C [5] was 23.4%, the viability, T/C [6] was 28.7% and the viability, T/C (second compound 0.316 µM, first compound 0.316 µM) was 26%. The viability, T/C (second compound 0.316 µM, first compound 1 µM) was 22.8%, the viability, T/C (second compound 0.316 µM, first compound 3.16 µM) was 27.9% and the viability, T/C (second compound 0.316 µM, first compound 10 µM) was 1.09%. The viability, T/C [7] was 21.7%, the viability, T/C [8] was 24.1% and the viability, T/C (second compound 1 µM, first compound 0.316 µM) was 25.8%. It also gave a viability, T/C (second compound 1 µM, first compound 1 µM) of 26.2%, a viability, T/C (second compound 1 µM, first compound 3.16 µM) of 26.6% and a viability, T/C (second compound 1 µM, first compound 10 µM) of 1.56%.
`CC(=O)c1c(C)c2cnc(Nc3ccc(N4CCNCC4)cn3)nc2n(C2CCCC2)c1=O` + CC(Nc1ncnc2nc[nH]c12)c1cc2cccc(Cl)c2c(=O)n1-c1ccccc1 showed an IC50 (second compound 0.0316 µM) of 0.0709 µM, an IC50 (second compound 0.1 µM) of 0.074 µM and an IC50 (second compound 0.316 µM) of over 0.1 µM. The IC50 (second compound 1 µM) was 0.0712 µM, the IC50 (second compound 3.16 µM) was 0.0143 µM and the IC50 (second compound 10 µM) was 0.0334 µM. It also gave a viability, T/C (second compound 0.0316 µM, first compound 0.000316 µM) of 96%, a viability, T/C (second compound 0.0316 µM, first compound 0.001 µM) of 68.1% and a viability, T/C (second compound 0.0316 µM, first compound 0.00316 µM) of 74.3%. For the same compound, the viability, T/C (second compound 0.0316 µM, first compound 0.01 µM) was 75.4%, the viability, T/C [1] was 77% and the viability, T/C [2] was 38.6%. For the same compound, the viability, T/C (second compound 0.1 µM, first compound 0.000316 µM) was 92.5%, the viability, T/C (second compound 0.1 µM, first compound 0.001 µM) was 79.8% and the viability, T/C (second compound 0.1 µM, first compound 0.00316 µM) was 74.5%. It also gave a viability, T/C (second compound 0.1 µM, first compound 0.01 µM) of 90.2%, a viability, T/C [3] of 79% and a viability, T/C [4] of 39.4%. It also gave a viability, T/C (second compound 0.316 µM, first compound 0.000316 µM) of 90.8%, a viability, T/C (second compound 0.316 µM, first compound 0.001 µM) of 85% and a viability, T/C (second compound 0.316 µM, first compound 0.00316 µM) of 101%. For the same compound, the viability, T/C (second compound 0.316 µM, first compound 0.01 µM) was 60.2%, the viability, T/C [5] was 56.5% and the viability, T/C [6] was 51.3%. For the same compound, the viability, T/C (second compound 1 µM, first compound 0.000316 µM) was 101%, the viability, T/C (second compound 1 µM, first compound 0.001 µM) was 73.1% and the viability, T/C (second compound 1 µM, first compound 0.00316 µM) was 78.7%. It also gave a viability, T/C (second compound 1 µM, first compound 0.01 µM) of 83.5%, a viability, T/C [7] of 59.8% and a viability, T/C [8] of 43.5%. For the same compound, the viability, T/C (second compound 3.16 µM, first compound 0.000316 µM) was 65%, the viability, T/C (second compound 3.16 µM, first compound 0.001 µM) was 134% and the viability, T/C (second compound 3.16 µM, first compound 0.00316 µM) was 78.8%. For the same compound, the viability, T/C (second compound 3.16 µM, first compound 0.01 µM) was 57.5%, the viability, T/C (second compound 3.16 µM, first compound 0.0316 µM) was 37.8% and the viability, T/C (second compound 3.16 µM, first compound 0.1 µM) was 42.7%. It also gave a viability, T/C (second compound 10 µM, first compound 0.000316 µM) of 60.1%, a viability, T/C (second compound 10 µM, first compound 0.001 µM) of 54.4% and a viability, T/C (second compound 10 µM, first compound 0.00316 µM) of 51%. The viability, T/C (second compound 10 µM, first compound 0.01 µM) was 66.3%, the viability, T/C (second compound 10 µM, first compound 0.0316 µM) was 46.6% and the viability, T/C (second compound 10 µM, first compound 0.1 µM) was 34.4%.
